Results published in article PMC8713283 (Journal of Medicinal Chemistry, 2021).
Read-outs that look alike come from different tables or passages of the source.

Columns and labels:
[1] = human
P-gp (human MDR1) = assay: in vitro; conditions: dog; for Papp A→B at 5 µM / Papp B→A at 5 µM: MDCK-MDR1; for efflux ratio at 5 µM: MDCK-MDR1, Efflux ratio B-A/A-B, MDCK-MDR1, 5 µM, N = 2
[2] = Log D(dec/w) shake flask partition coefficient; assay type: physicochemical; conditions: 1,9-decadiene and PBS pH 7.4 shake flask partition coefficient; for logD hydrocarbon water: 1,9-decadiene/PBS
[3] = target: T1, VHL (VCB, VHL:ElonginC:ElonginB) (Homo sapiens, UniProt P40337); assay: FP competition binding, binary binding to VHL
T1 construct: His6 (N, cleaved yes); made in house; host or cells: Escherichia coli

[4] = LPEester – LPEamide by amide–ester matched pairs
[5] = compound alone to VHL, FP competition with FAM-HIF-1α peptide, mean ± SEM, read-out: Kd binary
Throughout, for Plasma stability: time not given here.

Row | SMILES | Plasma stability [1] | Papp A→B at 5 µM (P-gp (human MDR1)) | Papp B→A at 5 µM (P-gp (human MDR1)) | efflux ratio at 5 µM (P-gp (human MDR1)) | logD hydrocarbon water [2] | Kd [3, 5] | ΔLPE [4] | LogD (dec/w) [2] | Kd [3]
1 | COCC(=O)NCCCCCC(=O)N[C@H](C(=O)N1C[C@H](O)C[C@H]1C(=O)NCc1ccc(-c2scnc2C)cc1)C(C)(C)C [Compound 1, (2S,4R)-4-Hydroxy-1-((S)-2-(6-(2-methoxyacetamido)hexanamido)-3,3-dimethylbutanoyl)-N-(4-(4-methylthiazol-5-yl)benzyl)pyrrolidine-2-carboxamide] | 126 ± 4% | 0.5 ×10⁻⁶ cm/s | 1.7 ×10⁻⁶ cm/s | 3 | -2.2 | – | – | – | –
2 | CCCC(=O)NCCCCCC(=O)N[C@H](C(=O)N1C[C@H](O)C[C@H]1C(=O)NCc1ccc(-c2scnc2C)cc1)C(C)(C)C [Compound 2, (2S,4R)-1-((S)-2-(6-Butyramidohexanamido)-3,3-dimethylbutanoyl)-4-hydroxy-N-(4-(4-methylthiazol-5-yl)benzyl)pyrrolidine-2-carboxamide] | 83 ± 5% | 0.4 ×10⁻⁶ cm/s | 2.9 ×10⁻⁶ cm/s | 7 | -2.2 | – | – | – | –
3 | Cc1ncsc1-c1ccc(CNC(=O)[C@@H]2C[C@@H](O)CN2C(=O)[C@@H](NC(=O)CCCCCNC(=O)Cc2ccccc2)C(C)(C)C)cc1 [Compound 3, (2S,4R)-1-((S)-3,3-Dimethyl-2-(6-(2-phenylacetamido)hexanamido)butanoyl)-4-hydroxy-N-(4-(4-methylthiazol-5-yl)benzyl)pyrrolidine-2-carboxamide] | 130 ± 3% | 0.7 ×10⁻⁶ cm/s | 8.4 ×10⁻⁶ cm/s | 12 | -1.5 | 119 nM | – | – | –
4 | Cc1ncsc1-c1ccc(CNC(=O)[C@@H]2C[C@@H](O)CN2C(=O)[C@@H](NC(=O)CCCCCNC(=O)C2CCCCC2)C(C)(C)C)cc1 [Compound 4, (2S,4R)-1-((S)-2-(6-(Cyclohexanecarboxamido)hexanamido)-3,3-dimethylbutanoyl)-4-hydroxy-N-(4-(4-methylthiazol-5-yl)benzyl)pyrrolidine-2-carboxamide] | 168 ± 20% | 0.3 ×10⁻⁶ cm/s | 10.3 ×10⁻⁶ cm/s | 33 | -1.4 | – | – | – | –
5 | Cc1ncsc1-c1ccc(CNC(=O)[C@@H]2C[C@@H](O)CN2C(=O)[C@@H](NC(=O)CCCCCNC(=O)CC23CC4CC(CC(C4)C2)C3)C(C)(C)C)cc1 [Compound 5, (2S,4R)-1-((S)-2-(6-(2-(Adamantan-1-yl)acetamido)hexanamido)-3,3-dimethylbutanoyl)-4-hydroxy-N-(4-(4-methylthiazol-5-yl)benzyl)pyrrolidine-2-carboxamide] | 74 ± 8% | 0.2 ×10⁻⁶ cm/s | 23.7 ×10⁻⁶ cm/s | 158 | -0.2 | – | – | – | –
6 | Cc1ncsc1-c1ccc(CNC(=O)[C@@H]2C[C@@H](O)CN2C(=O)[C@@H](NC(=O)CCCCCNC(=O)CC(c2ccccc2)c2ccccc2)C(C)(C)C)cc1 [Compound 6, (2S,4R)-1-((S)-2-(6-(3,3-Diphenylpropanamido)hexanamido)-3,3-dimethylbutanoyl)-4-hydroxy-N-(4-(4-methylthiazol-5-yl)benzyl)pyrrolidine-2-carboxamide] | 149 ± 9% | 0.1 ×10⁻⁶ cm/s | 18.5 ×10⁻⁶ cm/s | 133 | -0.3 | – | – | – | –
7 | CCCCOc1ccc(-c2ccc(C(=O)NCCCCCC(=O)N[C@H](C(=O)N3C[C@H](O)C[C@H]3C(=O)NCc3ccc(-c4scnc4C)cc3)C(C)(C)C)cc2)cc1 [Compound 7, (2S,4R)-1-((S)-2-(6-(4′-Butoxy-[1,1′-biphenyl]-4-carboxamido)hexanamido)-3,3-dimethylbutanoyl)-4-hydroxy-N-(4-(4-methylthiazol-5-yl)benzyl)pyrrolidine-2-carboxamide] | 83 ± 14% | – | 0.2 ×10⁻⁶ cm/s | – | 1 | – | – | – | –
8 | COCC(=O)OCCCCCC(=O)N[C@H](C(=O)N1C[C@H](O)C[C@H]1C(=O)NCc1ccc(-c2scnc2C)cc1)C(C)(C)C [Compound 8, 6-(((S)-1-((2S,4R)-4-Hydroxy-2-((4-(4-methylthiazol-5-yl)benzyl)carbamoyl)pyrrolidin-1-yl)-3,3-dimethyl-1-oxobutan-2-yl)amino)-6-oxohexyl 2-methoxyacetate] | 1 ± 0.4% | 0.4 ×10⁻⁶ cm/s | 11 ×10⁻⁶ cm/s | 26 | -1.7 | – | -0.2 | – | –
9 | Cc1ncsc1-c1ccc(CNC(=O)[C@@H]2C[C@@H](O)CN2C(=O)[C@@H](NC(=O)CCCCCOC(=O)Cc2ccccc2)C(C)(C)C)cc1 [Compound 10, 6-(((S)-1-((2S,4R)-4-Hydroxy-2-((4-(4-methylthiazol-5-yl)benzyl)carbamoyl)pyrrolidin-1-yl)-3,3-dimethyl-1-oxobutan-2-yl)amino)-6-oxohexyl 2-phenylacetate] | – | – | – | – | – | 136 nM | – | – | –
10 | Cc1ncsc1-c1ccc(CNC(=O)[C@@H]2C[C@@H](O)CN2C(=O)[C@@H](NC(=O)CCCCCOC(=O)C2CCCCC2)C(C)(C)C)cc1 [Compound 11, 6-(((S)-1-((2S,4R)-4-Hydroxy-2-((4-(4-methylthiazol-5-yl)benzyl)carbamoyl)pyrrolidin-1-yl)-3,3-dimethyl-1-oxobutan-2-yl)amino)-6-oxohexyl cyclohexanecarboxylate] | 14 ± 1% | 0.3 ×10⁻⁶ cm/s | 35.6 ×10⁻⁶ cm/s | 142 | 1.1 | – | 1.8 | – | –
11 | CCCCOc1ccc(-c2ccc(C(=O)OCCCCCC(=O)N[C@H](C(=O)N3C[C@H](O)C[C@H]3C(=O)NCc3ccc(-c4scnc4C)cc3)C(C)(C)C)cc2)cc1 [Compound 14, 6-(((S)-1-((2S,4R)-4-Hydroxy-2-((4-(4-methylthiazol-5-yl)benzyl)carbamoyl)pyrrolidin-1-yl)-3,3-dimethyl-1-oxobutan-2-yl)amino)-6-oxohexyl 4′-butoxy-[1,1′-biphenyl]-4-carboxylate] | 119 ± 28% | – | – | – | – | – | – | BLD^h | –
12 | Cc1ncsc1-c1ccc(CNC(=O)[C@@H]2C[C@@H](O)CN2C(=O)[C@@H](NC(=O)CCOCCNC(=O)Cc2ccccc2)C(C)(C)C)cc1 [Compound 15, (2S,4R)-1-((S)-3,3-Dimethyl-2-(3-(2-(2-phenylacetamido)ethoxy)propanamido)butanoyl)-4-hydroxy-N-(4-(4-methylthiazol-5-yl)benzyl)pyrrolidine-2-carboxamide] | 103 ± 14% | 0.4 ×10⁻⁶ cm/s | 4.6 ×10⁻⁶ cm/s | 13 | -1.4 | 171 ± 14 nM | – | – | –
13 | Cc1ncsc1-c1ccc(CNC(=O)[C@@H]2C[C@@H](O)CN2C(=O)[C@@H](NC(=O)CCOCCOCCNC(=O)Cc2ccccc2)C(C)(C)C)cc1 [Compound 16, (2S,4R)-1-((S)-14-(tert-Butyl)-2,12-dioxo-1-phenyl-6,9-dioxa-3,13-diazapentadecan-15-oyl)-4-hydroxy-N-(4-(4-methylthiazol-5-yl)benzyl)pyrrolidine-2-carboxamide] | 151 ± 30% | – | 3.3 ×10⁻⁶ cm/s | – | -2.3 | 172 ± 17 nM | – | – | –
14 | Cc1ncsc1-c1ccc(CNC(=O)[C@@H]2C[C@@H](O)CN2C(=O)[C@@H](NC(=O)CCOCCOCCOCCNC(=O)Cc2ccccc2)C(C)(C)C)cc1 [Compound 17, (2S,4R)-1-((S)-17-(tert-Butyl)-2,15-dioxo-1-phenyl-6,9,12-trioxa-3,16-diazaoctadecan-18-oyl)-4-hydroxy-N-(4-(4-methylthiazol-5-yl)benzyl)pyrrolidine-2-carboxamide] | 133 ± 18% | – | 2 ×10⁻⁶ cm/s | – | -1.9 | 138 nM | – | – | –
15 | Cc1ncsc1-c1ccc(CNC(=O)[C@@H]2C[C@@H](O)CN2C(=O)[C@@H](NC(=O)CCOCCOC(=O)Cc2ccccc2)C(C)(C)C)cc1 [Compound 18, 2-(3-(((S)-1-((2S,4R)-4-Hydroxy-2-((4-(4-methylthiazol-5-yl)benzyl)carbamoyl)pyrrolidin-1-yl)-3,3-dimethyl-1-oxobutan-2-yl)amino)-3-oxopropoxy)ethyl 2-phenylacetate] | – | – | – | – | – | ~200 nM | – | – | 232 ± 47 nM
16 | Cc1ncsc1-c1ccc(CNC(=O)[C@@H]2C[C@@H](O)CN2C(=O)[C@@H](NC(=O)CCOCCOCCOC(=O)Cc2ccccc2)C(C)(C)C)cc1 [Compound 19, 2-(2-(3-(((S)-1-((2S,4R)-4-Hydroxy-2-((4-(4-methylthiazol-5-yl)benzyl)carbamoyl)pyrrolidin-1-yl)-3,3-dimethyl-1-oxobutan-2-yl)amino)-3-oxopropoxy)ethoxy)ethyl 2-phenylacetate] | – | – | – | – | – | 197 ± 27 nM | – | – | –
17 | Cc1ncsc1-c1ccc(CNC(=O)[C@@H]2C[C@@H](O)CN2C(=O)[C@@H](NC(=O)CCOCCOCCOCCOC(=O)Cc2ccccc2)C(C)(C)C)cc1 [Compound 20, (S)-14-((2S,4R)-4-Hydroxy-2-((4-(4-methylthiazol-5-yl)benzyl)carbamoyl)pyrrolidine-1-carbonyl)-15,15-dimethyl-12-oxo-3,6,9-trioxa-13-azahexadecyl 2-phenylacetate] | – | – | – | – | – | 144 nM | – | – | –
18 | C[C@H]1O[C@@H](O[C@H]2[C@@H](O)C[C@H](O[C@H]3[C@@H](O)C[C@H](O[C@H]4CC[C@@]5(C)[C@H](CC[C@@H]6[C@@H]5C[C@@H](O)[C@]5(C)[C@@H](C7=CC(=O)OC7)CC[C@]65O)C4)O[C@@H]3C)O[C@@H]2C)C[C@H](O)[C@@H]1O [Digoxin, reference compound] | – | 0.8 ×10⁻⁶ cm/s | 21.5 ×10⁻⁶ cm/s | 26.3 | – | – | – | – | –
19 | CC(C)NCC(O)COc1cccc2ccccc12 (stereo not shown) [Propranolol, reference compound] | – | 49.1 ×10⁻⁶ cm/s | 41.6 ×10⁻⁶ cm/s | 0.8 | – | – | – | – | –
